Where two headings read alike, the source gives them in different places.
Legend:
[1] = system: Listeria innocua (ATCC 33090); assay type: cell-based
[2] = system: Salmonella typhimurium (ATCC 14028); conditions: 25 g food matrix, 100 mL BPW media, inoculation 10 cfu/sample, 35° C. 24 hours, mean of two replicates
Description: (§1) Individual inoculums were prepared by serially diluting each culture sample with Butterfield's Buffer (3M Company, St. Paul, Minn.). To determine the cell concentration (cfu/sample), a 1 mL aliquot of diluted sample was plated onto a […] Aerobic Count Plate (3M Company, St. Paul, Minn.), incubated, and counted according to the manufacturer's instructions. The counts (cfu) from the plates were used to calculate the final dilution required to achieve the targeted inoculum concentration.
(§2) The inoculated sample was added to a WHIRL-PAK sterile sampling bag that contained 100 mL of Buffered Peptone Water enrichment media. […] The bag was closed and the sample was mixed for 30 seconds followed by incubation at 35° C. for 24 hours. A 10 mL aliquot of the media was removed and serially diluted with Demi Fraser media (3M Company, St. Paul, Minn.). A 100 microliter sample from the final dilution was plated onto an EZ-CHROM Salmonella Plus agar plate according to the manufacturer's instructions and the plate was incubated at 37° C. for 24 hours. Colonies (cfu) that formed were counted by visual inspection. The total colony count post enrichment was calculated by adjusting the observed plate count based on the number and volume of the dilutions. The recovery of Salmonella typhimurium (cfu/mL) after enrichment is reported in Table 1 as the mean value of two replicates.

[3] = system: Listeria innocua (ATCC 33090); conditions: 25 g food matrix, 100 mL Demi Fraser media, inoculation 1.4 cfu/sample, 35° C. 24 hours, mean of two replicates
Description: as §1
as §2, with “Demi Fraser” for “Buffered Peptone Water”, “with fresh” for “with”, “media.” for “media (3M Company, St. Paul, Minn.).”, “a Modified Oxford (MOX)” for “an EZ-CHROM Salmonella Plus”, “dilutions.” for “dilutions. The recovery of Salmonella typhimurium (cfu/mL) after enrichment is reported in Table 1 as the mean value of two replicates.”

[4] = salt in enrichment media 331 micromolar, 50 g food matrix, 200 mL Demi Fraser media, inoculation 3.7 cfu/sample, mean of two replicates
[5] = salt in enrichment media 330 micromolar, 50 g food matrix, 200 mL Demi Fraser media, inoculation 3.7 cfu/sample, mean of two replicates

**Q.** For `[Ba+2].[Cl-].[Cl-]` [BaCl2, barium chloride], which “Recovery after Enrichment” value [1, 4] is on record?
**A.** 1 × 10^4 cfu/mL

**Q.** `[Ca+2].[Cl-].[Cl-]` [CaCl2, calcium chloride] was tested. Which “Recovery after Enrichment” value [1] did it give?
**A.** 1 × 10^4 cfu/mL

**Q.** With `O.O.O.O.O.O.O.O=S(=O)([O-])[O-].[Fe+2]` [FeSO4, ferrous sulfate heptahydrate] as the compound, how does the “Recovery after Enrichment” value ([2]; FeSO4 50 mg/L) read?
**A.** 1 × 10^6 cfu/mL

**Q.** And the “Recovery after Enrichment” value ([2]; FeSO4 500 mg/L)?
**A.** 1 × 10^6 cfu/mL

**Q.** What about the “Recovery after Enrichment” value ([2]; FeSO4 2000 mg/L) of the same compound?
**A.** 1 × 10^7 cfu/mL

**Q.** And the “Recovery after Enrichment” value ([3]; FeSO4 50 mg/L)?
**A.** 1 × 10^5 cfu/mL

**Q.** What about the “Recovery after Enrichment” value ([3]; FeSO4 500 mg/L) of the same compound?
**A.** 1 × 10^3 cfu/mL

**Q.** And the “Recovery after Enrichment” value ([3]; FeSO4 2000 mg/L)?
**A.** 1 × 10^3 cfu/mL

**Q.** Which “Recovery after Enrichment” value ([1]; salt in enrichment media 332 micromolar, 50 g food matrix, 200 mL Demi Fraser media, inoculation 3.7 cfu/sample, mean of two replicates) does the source give for `O=S(=O)([O-])[O-].[Mg+2]` [MgSO4, magnesium sulfate] here?
**A.** 1 × 10^5 cfu/mL

**Q.** Which “Recovery after Enrichment” value ([1]; ZnCl2 45 mg/L, 50 g food matrix, 200 mL Demi Fraser media, inoculation 3.7 cfu/sample, 35° C. 24 hours, mean of two replicates) does the source give for `[Cl-].[Cl-].[Zn+2]` [ZnCl2, zinc chloride] here?
**A.** 1 × 10^6 cfu/mL

**Q.** And the “Recovery after Enrichment” value [1, 5]?
**A.** 1 × 10^6 cfu/mL

**Q.** With “ferric ammonium citrate [Example C6H11FeNO7]” as the compound, how does the “Recovery after Enrichment” value [1, 5] read?
**A.** 1 × 10^4 cfu/mL

**Q.** ferric citrate [Example C6H5FeO7] was tested. Which “Recovery after Enrichment” value [1, 4] did it give?
**A.** 1 × 10^4 cfu/mL

From patent US20210277352A1, “ENRICHMENT SUPPLEMENT FOR ANTIMICROBAL MATRICES” (priority 2018, published 2021)
